The values that follow come from PubChem BioAssay AID342 (DTP/NCI, 2004).

Values joined by “and” are separate entries in the source; they are usually repeats but may differ in a detail not shown here. Equal entries are not always repeated.

For the assay, the system named is Swiss mice, Sarcoma 180 sc, mean tumor weight T/C. Nature of the assay: NCI In Vivo Anticancer Drug Screen. Data for tumor model Sarcoma 180 (subcutaneous) in Swiss mice. Conditions: endpoint: mean tumor weight, higher = larger tumour. The gist of the method: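 Readout is the ratio of treated-group measurement to vehicle-control measurement (T/C), based on survival or tumor size in mice carrying transplanted tumors.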

[1] abbreviates: dose: 100.0 mg/kg/injection, schedule: Q01DX007 (ip), vehicle: saline.
Where [2] appears, read: dose: 62.5 mg/kg/injection, schedule: Q01DX007 (ip), vehicle: carboxymethylcellulose (CMC).
The mark [3] stands for this setting: dose: 125.0 mg/kg/injection, schedule: Q01DX007 (ip), vehicle: carboxymethylcellulose (CMC).
The mark [4] stands for this setting: dose: 62.0 mg/kg/injection, schedule: Q01DX007 (ip), vehicle: carboxymethylcellulose (CMC).
[5] abbreviates: dose: 250.0 mg/kg/injection, schedule: Q01DX007 (ip), vehicle: carboxymethylcellulose (CMC).
The mark [6] stands for this setting: dose: 500.0 mg/kg/injection, schedule: Q01DX007 (ip), vehicle: carboxymethylcellulose (CMC).

Turning to `CC[C@](C)(O)C(=O)O[C@H]1C(=O)O[C@@H]2C[C@H]3C(C)=C[C@H](O)[C@@H](O)[C@]3(C)[C@H]3[C@@]4(O)OC[C@]32[C@@H]1[C@@H](C)[C@H]4O`, the T/C is 60 % of control (dose: 0.5 mg/kg/injection, schedule: Q01DX007 (sc), vehicle: olive oil, sesame oil, peanut oil); 64 % of control (dose: 1.0 mg/kg/injection, schedule: Q01DX007 (sc), vehicle: olive oil, sesame oil, peanut oil); 67 % of control (dose: 2.0 mg/kg/injection, schedule: Q01DX007 (sc), vehicle: olive oil, sesame oil, peanut oil); 77 % of control and 80 % of control (dose: 4.0 mg/kg/injection, schedule: Q01DX007 (sc), vehicle: olive oil, sesame oil, peanut oil); 97 % of control (dose: 6.0 mg/kg/injection, schedule: Q01DX007 (sc), vehicle: olive oil, sesame oil, peanut oil); 93 % of control (dose: 9.0 mg/kg/injection, schedule: Q01DX007 (sc), vehicle: olive oil, sesame oil, peanut oil).
As to `CC(=O)[C@@]1(O)CC[C@H]2[C@@H]3CCC4=CC(=O)CC[C@]4(C)[C@@]3(F)[C@@H](O)C[C@@]21C`, the T/C (dose: 12.0 mg/kg/injection, schedule: Q01DX007 (sc), vehicle: steriod suspending solution) was 67 % of control; the T/C (dose: 25.0 mg/kg/injection, schedule: Q01DX007 (sc), vehicle: steriod suspending solution) was 69 % of control; the T/C (dose: 55.0 mg/kg/injection, schedule: Q01DX007 (sc), vehicle: steriod suspending solution) is 40 % of control; the T/C (dose: 111.0 mg/kg/injection, schedule: Q01DX007 (sc), vehicle: steriod suspending solution) is 40 % of control and 42 % of control; the T/C (dose: 166.0 mg/kg/injection, schedule: Q01DX007 (sc), vehicle: steriod suspending solution) was 61 % of control; the T/C (dose: 250.0 mg/kg/injection, schedule: Q01DX007 (sc), vehicle: steriod suspending solution) was 58 % of control. Further, under “dose: 375.0 mg/kg/injection, schedule: Q01DX007 (sc), vehicle: steriod suspending solution”, the T/C is 44 % of control.
In the case of `COc1ccc(-c2cc(=O)c3c(O)c(OC)c(O)cc3o2)cc1`, the T/C is, setting by setting: (dose: 25.0 mg/kg/injection, schedule: Q01DX007 (ip), vehicle: saline) 73 % of control; (dose: 50.0 mg/kg/injection, schedule: Q01DX007 (ip), vehicle: saline) 79 % of control; under setting [1], 85 % of control.
Regarding `O=C(Nc1ccc2cc(S(=O)(=O)O)ccc2c1)c1ccc(N=Nc2c(S(=O)(=O)O)cc3cc(S(=O)(=O)O)cc(NC(=O)c4ccccc4)c3c2O)cc1`, the T/C by setting is: (dose: 41.5 mg/kg/injection, schedule: Q#A X014 (ip), vehicle: methylcellulose (MC)) 52 % of control and 61 % of control and 77 % of control; (dose: 93.5 mg/kg/injection, schedule: Q#A X014 (ip), vehicle: methylcellulose (MC)) 44 % of control and 63 % of control.
With `CN(/N=N/N(C)c1ccccc1)c1ccccc1`, the T/C (dose: 7.8 mg/kg/injection, schedule: Q01DX007 (ip), vehicle: carboxymethylcellulose (CMC)) was 72 % of control; the T/C (dose: 15.6 mg/kg/injection, schedule: Q01DX007 (ip), vehicle: carboxymethylcellulose (CMC)) is 62 % of control; the T/C (dose: 31.3 mg/kg/injection, schedule: Q01DX007 (ip), vehicle: carboxymethylcellulose (CMC)) was 75 % of control; the T/C under setting [2] was 49 % of control and 74 % of control; the T/C under setting [3] is 37 % of control.
As to `CN(C)c1ccc(/C=C/c2ccnc3ccccc23)cc1`, the T/C is 82 % of control (dose: 15.5 mg/kg/injection, schedule: Q01DX007 (ip), vehicle: water) and 86 % of control under setting [4].
On to `CN(N=Nc1n[nH]nc1C(N)=O)c1ccccc1`, for which the T/C is 65 % of control (dose: 31.0 mg/kg/injection, schedule: Q01DX007 (ip), vehicle: carboxymethylcellulose (CMC)); 73 % of control under setting [4]; 70 % of control under setting [3].
Regarding `CCCCN(C)N=Nc1ccc(OCC(=O)OCC)cc1`, the T/C was 111 % of control (dose: 7.0 mg/kg/injection, schedule: Q01DX007 (ip), vehicle: saline); 93 % of control (dose: 10.0 mg/kg/injection, schedule: Q01DX007 (ip), vehicle: saline); 111 % of control (dose: 15.0 mg/kg/injection, schedule: Q01DX007 (ip), vehicle: saline); 95 % of control (dose: 23.0 mg/kg/injection, schedule: Q01DX007 (ip), vehicle: saline).
Regarding `CC(C)COC(=O)C1(N)CCCC1`, the T/C (dose: 90.0 mg/kg/injection, schedule: Q01DX007 (ip), vehicle: carboxymethylcellulose (CMC)) is 80 % of control; the T/C (dose: 135.0 mg/kg/injection, schedule: Q01DX007 (ip), vehicle: carboxymethylcellulose (CMC)) is 44 % of control; the T/C (dose: 188.0 mg/kg/injection, schedule: Q01DX007 (ip), vehicle: saline) was 14 % of control; the T/C (dose: 202.0 mg/kg/injection, schedule: Q01DX007 (ip), vehicle: carboxymethylcellulose (CMC)) was 49 % of control; the T/C (dose: 303.0 mg/kg/injection, schedule: Q01DX007 (ip), vehicle: carboxymethylcellulose (CMC)) was 18 % of control.
`CNC(C)=O`: the T/C runs as follows: under setting [3], 84 % of control; under setting [5], 90 % of control and 106 % of control; under setting [6], 71 % of control; (dose: 623.2 mg/kg/injection, schedule: Q01DX007 (ip), vehicle: carboxymethylcellulose (CMC)) 72 % of control; (dose: 779.0 mg/kg/injection, schedule: Q01DX007 (ip), vehicle: carboxymethylcellulose (CMC)) 75 % of control; (dose: 1038.66 mg/kg/injection, schedule: Q01DX007 (ip), vehicle: carboxymethylcellulose (CMC)) 69 % of control. Besides, the T/C (dose: 1558.0 mg/kg/injection, schedule: Q01DX007 (ip), vehicle: carboxymethylcellulose (CMC)) was 58 % of control and the T/C (dose: 2000.0 mg/kg/injection, schedule: Q01DX007 (ip), vehicle: carboxymethylcellulose (CMC)) is 23 % of control.
In the case of `O=CN(O)CC(=O)O`, the T/C runs as follows: under setting [2], 105 % of control; under setting [5], 83 % of control; under setting [6], 84 % of control; (dose: 750.0 mg/kg/injection, schedule: Q01DX007 (ip), vehicle: carboxymethylcellulose (CMC)) 62 % of control; (dose: 1000.0 mg/kg/injection, schedule: Q01DX007 (ip), vehicle: carboxymethylcellulose (CMC)) 61 % of control.
Consider `CCOC(=O)CCCc1ccc(N=NN(C)C)cc1`, for which the T/C reads like this: (dose: 20.0 mg/kg/injection, schedule: Q01DX007 (ip), vehicle: saline) 99 % of control; (dose: 30.0 mg/kg/injection, schedule: Q01DX007 (ip), vehicle: saline) 69 % of control; (dose: 40.0 mg/kg/injection, schedule: Q01DX007 (ip), vehicle: saline) 63 % of control; (dose: 60.0 mg/kg/injection, schedule: Q01DX007 (ip), vehicle: saline) 68 % of control; (dose: 75.0 mg/kg/injection, schedule: Q01DX007 (ip), vehicle: saline) 38 % of control; under setting [1], 44 % of control. Moreover, the T/C reads like this: (dose: 150.0 mg/kg/injection, schedule: Q01DX007 (ip), vehicle: saline) 31 % of control; (dose: 200.0 mg/kg/injection, schedule: Q01DX007 (ip), vehicle: saline) 12 % of control.
On to `O=C(O)c1cc2ccccc2c(Br)c1O.OC1CCC(Br)C2CCC[N-]C12.[Cu+]`, for which the T/C was 74 % of control (dose: 0.5 mg/kg/injection, schedule: Q01DX007 (ip), vehicle: carboxymethylcellulose (CMC)); 90 % of control and 95 % of control (dose: 1.0 mg/kg/injection, schedule: Q01DX007 (ip), vehicle: carboxymethylcellulose (CMC)); 101 % of control and 109 % of control (dose: 2.0 mg/kg/injection, schedule: Q01DX007 (ip), vehicle: carboxymethylcellulose (CMC)); 83 % of control (dose: 4.0 mg/kg/injection, schedule: Q01DX007 (ip), vehicle: carboxymethylcellulose (CMC)).
`CC1(C)N=C(N)N=C(N)N1c1cccc(Cl)c1`: the T/C is, setting by setting: (dose: 3.97 mg/kg/injection, schedule: Q01DX007 (ip), vehicle: carboxymethylcellulose (CMC)) 83 % of control; (dose: 6.95 mg/kg/injection, schedule: Q01DX007 (ip), vehicle: carboxymethylcellulose (CMC)) 85 % of control; (dose: 13.9 mg/kg/injection, schedule: Q01DX007 (ip), vehicle: carboxymethylcellulose (CMC)) 68 % of control; (dose: 27.8 mg/kg/injection, schedule: Q01DX007 (ip), vehicle: carboxymethylcellulose (CMC)) 74 % of control.
